Source: patent publication US20220281848A1, “PYRAZOLE-SUBSTITUTED PYRROLIDINONES AS HERBICIDES” (FMC Corporation, priority 2019, published 2022)

Columns and labels:
Type in all cases: in vivo
[1] = tested on: plants; experiment: Test D post-emergence, other plants of Tables D2 and D4; conditions: post-emergence
How it was run: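 Seeds treated with herbicide safener; sown in soil; glasshouse, 16 h light, 65% humidity. Sprayed day 1 (pre) or ~day 12 (post). Spray in 0.2% v/v adjuvant. Scored 0–100 damage: 20 DAA pre, 15 d post.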

[2] = tested on: redroot pigweed (Amaranthus retroflexus, AMARE); experiment: Test A pre-emergence, redroot pigweed; conditions: after 13 d
How it was run: (§1)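 Values are percent plant damage 13 d after a pre-emergence spray (15.625, 62.5 or 250 g/ha; acetone/water with 0.5% Tween 20) applied to pots one day post-sowing, under glasshouse conditions of 24/16° C. and twice-daily watering.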

[3] = tested on: velvetleaf (Abutilon theophrasti, ABUTH); experiment: Test A pre-emergence, velvetleaf; conditions: after 13 d
How it was run: as §1

[4] = tested on: corn (Zea mays, ZEAMX); experiment: Test A post-emergence, corn; conditions: after 13 d
How it was run: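 Visual damage rating (0 no damage to 100 total damage) was made 13 d after spraying. The spray was 15.625, 62.5 or 250 g/ha in 50:50 acetone/water with 0.5% Tween 20, applied to 8-day-old glasshouse plants kept at 24/16° C, 14 h light and 65% humidity.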

## CN1CC(c2cc(C(F)(F)F)n(C)n2)C(C(=O)Nc2ccc(F)cc2C(C)(F)F)C1=O (racemic) [Compound 26]
[1]; ABUTH, rate 500, evaluated after 15 d
  damage to plant (100=total damage to plant; 0=no damage to plant), ABUTH: 0
[1]; rate 130, evaluated after 15 d
  damage to plant (100=total damage to plant; 0=no damage to plant), AMARE: 0
  damage to plant (100=total damage to plant; 0=no damage to plant), BIDPI: 0
  damage to plant (100=total damage to plant; 0=no damage to plant), BRAPL: 50
  damage to plant (100=total damage to plant; 0=no damage to plant), CYPES: 0
  damage to plant (100=total damage to plant; 0=no damage to plant), DIGSA: 0
  damage to plant (100=total damage to plant; 0=no damage to plant), ECHCG: 0
  damage to plant (100=total damage to plant; 0=no damage to plant), ELEIN: 0
  damage to plant (100=total damage to plant; 0=no damage to plant), EPHHL: 0
  damage to plant (100=total damage to plant; 0=no damage to plant), GLXMA: 0
  damage to plant (100=total damage to plant; 0=no damage to plant), IPOHE: 0
  damage to plant (100=total damage to plant; 0=no damage to plant), ORYSA: 0
  damage to plant (100=total damage to plant; 0=no damage to plant), PANMI: 0
  damage to plant (100=total damage to plant; 0=no damage to plant), SETFA: 0
  damage to plant (100=total damage to plant; 0=no damage to plant), SORVU: 0
[1]; rate 250, evaluated after 15 d
  damage to plant (100=total damage to plant; 0=no damage to plant), AMARE: 0
  damage to plant (100=total damage to plant; 0=no damage to plant), BIDPI: 0
  damage to plant (100=total damage to plant; 0=no damage to plant), BRAPL: 60
  damage to plant (100=total damage to plant; 0=no damage to plant), CYPES: 0
  damage to plant (100=total damage to plant; 0=no damage to plant), DIGSA: 10
  damage to plant (100=total damage to plant; 0=no damage to plant), ECHCG: 0
  damage to plant (100=total damage to plant; 0=no damage to plant), ELEIN: 0
  damage to plant (100=total damage to plant; 0=no damage to plant), EPHHL: 10
  damage to plant (100=total damage to plant; 0=no damage to plant), GLXMA: 0
  damage to plant (100=total damage to plant; 0=no damage to plant), IPOHE: 0
  damage to plant (100=total damage to plant; 0=no damage to plant), ORYSA: 0
  damage to plant (100=total damage to plant; 0=no damage to plant), PANMI: 0
  damage to plant (100=total damage to plant; 0=no damage to plant), SETFA: 60
  damage to plant (100=total damage to plant; 0=no damage to plant), SORVU: 0
[1]; rate 500, evaluated after 15 d
  damage to plant (100=total damage to plant; 0=no damage to plant), AMARE: 0
  damage to plant (100=total damage to plant; 0=no damage to plant), BIDPI: 0
  damage to plant (100=total damage to plant; 0=no damage to plant), BRAPL: 80
  damage to plant (100=total damage to plant; 0=no damage to plant), CYPES: 0
  damage to plant (100=total damage to plant; 0=no damage to plant), DIGSA: 60
  damage to plant (100=total damage to plant; 0=no damage to plant), ECHCG: 10
  damage to plant (100=total damage to plant; 0=no damage to plant), ELEIN: 10
  damage to plant (100=total damage to plant; 0=no damage to plant), EPHHL: 10
  damage to plant (100=total damage to plant; 0=no damage to plant), GLXMA: 0
  damage to plant (100=total damage to plant; 0=no damage to plant), IPOHE: 0
  damage to plant (100=total damage to plant; 0=no damage to plant), ORYSA: 0
  damage to plant (100=total damage to plant; 0=no damage to plant), PANMI: 0
  damage to plant (100=total damage to plant; 0=no damage to plant), SETFA: 60
  damage to plant (100=total damage to plant; 0=no damage to plant), SORVU: 0
[2]; Pre-Emergence at 62.5 g/ha
  damage to plant (100=total damage; 0=no damage) AMARE: 0
[2]; Pre-Emergence at 250 g/ha
  damage to plant (100=total damage; 0=no damage) AMARE: 0
[3]; Pre-Emergence at 62.5 g/ha
  damage to plant (100=total damage; 0=no damage) ABUTH: 0
[3]; Pre-Emergence at 250 g/ha
  damage to plant (100=total damage; 0=no damage) ABUTH: 0
[4]; Post-Emergence at 62.5 g/ha
  damage to plant (100=total damage; 0=no damage) ZEAMX: 60
[4]; Post-Emergence at 250 g/ha
  damage to plant (100=total damage; 0=no damage) ZEAMX: 80
